Target: T1, TRPML1 (Homo sapiens, UniProt Q9GZU1)
T1 construct: expressed in transfected cells; host or cells: HEK T-REx cells stably expressing GCaMP6f and TRPML1
Test: Cellular TRPML1 assay (FLIPR, GCaMP6f calcium read-out)
Format: cell-based
Conditions: HEKT-REx/GCaMP6f/TRPML1 cells, FLIPR TETRA, kinetic response over 300 seconds; read-out: TRPML1 FLIPR pEC50 (converted)
Description: Example A: Cellular TRPML1 Assay
The final clone for the TRPML1 assay is HEKT-REx/GCaMP6f/TRPML1. GCaMP6f is a genetically encoded calcium indicator that is stably expressed in this cell line and used as a fluorescent read-out.
Experiments were performed in 384 MTP format. Cells are seeded at 15000 cells/well in 20 μl/well of Optimem+0.5% FBS without selection antibiotics. Twenty-four hours later, cells are assayed for the response to various compounds using the Ca^2+ sensitive GCaMP6f protein stably expressed in the cells as readout.
The experiment was performed in a 384-well format according to the following procedures: • 24 h after seeding, the cells were pre-incubated at room temperature for about 10 min. • Started the experiment at the FLIPR^TETRA by injecting 10 μL/w of 3× concentrated test compounds and controls in Ca^2+ free Tyrode's buffer. Monitored the kinetic response over a period of 300 seconds. • Final DMSO concentration: 0.5%
Data from FLIPR^TETRA measurements were analyzed with the Genedata Screener© software.

T1 sequence (Q9GZU1 whole entry): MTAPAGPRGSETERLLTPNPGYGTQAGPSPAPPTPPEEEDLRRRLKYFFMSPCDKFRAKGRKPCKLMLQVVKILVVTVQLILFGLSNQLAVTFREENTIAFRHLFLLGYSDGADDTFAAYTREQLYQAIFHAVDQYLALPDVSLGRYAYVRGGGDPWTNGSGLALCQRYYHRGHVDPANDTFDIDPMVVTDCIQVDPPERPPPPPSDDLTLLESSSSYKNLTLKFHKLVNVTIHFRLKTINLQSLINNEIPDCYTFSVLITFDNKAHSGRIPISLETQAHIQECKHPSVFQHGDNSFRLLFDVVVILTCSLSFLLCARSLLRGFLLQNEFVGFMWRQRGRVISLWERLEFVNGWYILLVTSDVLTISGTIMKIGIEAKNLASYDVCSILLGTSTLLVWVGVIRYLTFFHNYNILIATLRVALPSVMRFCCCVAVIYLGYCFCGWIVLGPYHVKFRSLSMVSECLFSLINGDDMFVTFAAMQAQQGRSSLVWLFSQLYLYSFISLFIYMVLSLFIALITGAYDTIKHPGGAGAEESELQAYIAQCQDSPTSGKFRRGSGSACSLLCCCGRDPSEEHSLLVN

SMILES | EC50
O=C(Nc1ccc(O[C@@H]2COCC2(F)F)c(F)c1)c1nc(N2CCCC2)oc1CC(F)(F)F [Example 49, (R)—N-(4-((4,4-difluorotetrahydrofuran-3-yl)oxy)-3-fluorophenyl)-2-(pyrrolidin-1-yl)-5-(2,2,2-trifluoroethyl)oxazole-4-carboxamide] | 1 to 10 µM
O=C(Nc1ccc(OCC2CCCC2(F)F)c(F)c1)c1nc(N2CCCC2)oc1CC(F)(F)F (stereo not drawn) [Example 53, N-{4-[(2,2-difluorocyclopentyl)methoxy]-3-fluorophenyl}-2-(pyrrolidin-1-yl)-5-(2,2,2-trifluoroethyl)oxazole-4-carboxamide] | 1 to 10 µM
CCC(C)Oc1ccc(NC(=O)c2nc(N3CCCC3)oc2CC(F)(F)F)cc1F (stereo not drawn) [Example 59, N-(4-(sec-butoxy)-3-fluorophenyl)-2-(pyrrolidin-1-yl)-5-(2,2,2-trifluoroethyl)oxazole-4-carboxamide] | 1 to 10 µM
CC(CC(F)(F)F)Oc1ccc(NC(=O)c2nc(N3CCCC3)oc2CC(F)(F)F)cc1F (stereo not drawn) [Example 60, N-(3-fluoro-4-((4,4,4-trifluorobutan-2-yl)oxy)phenyl)-2-(pyrrolidin-1-yl)-5-(2,2,2-trifluoroethyl) oxazole-4-carboxamide] | 1 to 10 µM
O=C(Nc1ccc(OC2CCCC2)c(F)c1)c1nc(N2C[C@H]3CCO[C@H]3C2)oc1CC(F)(F)F [Example 61, N-(4-(cyclopentyloxy)-3-fluorophenyl)-2-((3aR,6aR)-hexahydro-5H-furo[2,3-c]pyrrol-5-yl)-5-(2,2,2-trifluoroethyl)oxazole-4-carboxamide] | 1 to 10 µM
O=C(Nc1ccc(OC2CCCC2)c(F)c1)c1nc(N2CCCC2)oc1CC(F)(F)F [Example 62, N-[4-(cyclopentyloxy)-3-fluorophenyl]-2-(pyrrolidin-1-yl)-5-(2,2,2-trifluoroethyl)oxazole-4-carboxamide] | 1 to 10 µM
O=C(Nc1ccc(OC2COCC2(F)F)c(F)c1)c1nc(N2CCC3(CC3)C2)oc1CC(F)(F)F (stereo not drawn) [Example 63, N-(4-((4,4-difluorotetrahydrofuran-3-yl)oxy)-3-fluorophenyl)-2-(5-azaspiro[2.4]heptan-5-yl)-5-(2,2,2-trifluoroethyl)oxazole-4-carboxamide] | 1 to 10 µM
O=C(Nc1ccc(OC2CCCC23CCC3)c(F)c1)c1nc(N2CCCC2)oc1CC(F)(F)F (stereo not drawn) [Example 67, N-(3-fluoro-4-{spiro[3.4]octan-5-yloxy}phenyl)-2-(pyrrolidin-1-yl)-5-(2,2,2-trifluoroethyl)oxazole-4-carboxamide] | 1 to 10 µM
O=C(Nc1ccc(O[C@H]2COCC2(F)F)c(F)c1)c1nc(N2CCCC2)oc1CC(F)(F)F [Example 69, (S)—N-(4-((4,4-difluorotetrahydrofuran-3-yl)oxy)-3-fluorophenyl)-2-(pyrrolidin-1-yl)-5-(2,2,2-trifluoroethyl)oxazole-4-carboxamide] | 0.01 to 1 µM
CN(c1ccc(NC(=O)c2nc(N3CC4(C3)CC(F)(F)C4)oc2CC(F)(F)F)cc1F)C1CCCC1 [Example 79, N-{4-[cyclopentyl(methyl)amino]-3-fluorophenyl}-2-{6,6-difluoro-2-azaspiro[3.3]heptan-2-yl}-5-(2,2,2-trifluoroethyl)oxazole-4-carboxamide] | 1 to 10 µM
CN(c1c(F)cc(NC(=O)c2nc(N3CCCC3)oc2CC(F)(F)F)cc1F)C1CCCC1(F)F (stereo not drawn) [Example 81, N-{4-[(2,2-difluorocyclopentyl)(methyl)amino]-3,5-difluorophenyl}-2-(pyrrolidin-1-yl)-5-(2,2,2-trifluoroethyl)oxazole-4-carboxamide] | 1 to 10 µM
O=C(Nc1ccc(OC2CCCC2)c(O)c1)c1nc(N2CCCC2)oc1CC(F)(F)F [Example 85, N-(4-(cyclopentyloxy)-3-hydroxyphenyl)-2-(pyrrolidin-1-yl)-5-(2,2,2-trifluoroethyl)oxazole-4-carboxamide] | 1 to 10 µM
Cc1oc(N2CCCC2CO)nc1C(=O)Nc1ccc(N2CCCCC2)c(F)c1 (stereo not drawn) [Example 93, N-(3-fluoro-4-(piperidin-1-yl)phenyl)-2-(2-(hydroxymethyl)pyrrolidin-1-yl)-5-methyloxazole-4-carboxamide] | 10 to 100 µM
Cc1oc(NC2CCCC23CCCO3)nc1C(=O)Nc1ccc(N2CCCCC2)c(F)c1 (stereo not drawn) [Example 95, 2-((1-oxaspiro[4.4]nonan-6-yl)amino)-N-(3-fluoro-4-(piperidin-1-yl)phenyl)-5-methyloxazole-4-carboxamide] | 10 to 100 µM

Now from value to molecule:

EC50 | SMILES
1 to 10 µM | O=C(Nc1ccc(OC2CC3C(C2)C3(F)F)c(F)c1)c1nc(N2CCCC2)oc1CC(F)(F)F (stereo not drawn) [Example 46, N-[4-({6,6-difluorobicyclo[3.1.0]hexan-3-yl}oxy)-3-fluorophenyl]-2-(pyrrolidin-1-yl)-5-(2,2,2-trifluoroethyl)oxazole-4-carboxamide]
1 to 10 µM | O=C(Nc1ccc(OC2CCC3CC32)c(F)c1)c1nc(N2CCCC2)oc1CC(F)(F)F (stereo not drawn) [Example 51, N-(4-{bicyclo[3.1.0]hexan-2-yloxy}-3-fluorophenyl)-2-(pyrrolidin-1-yl)-5-(2,2,2-trifluoroethyl)oxazole-4-carboxamide]
1 to 10 µM | O=C(Nc1ccc(OC2CCCC23CC3)c(F)c1)c1nc(N2CCCC2)oc1CC(F)(F)F (stereo not drawn) [Example 52, N-(3-fluoro-4-(spiro[2.4]heptan-4-yloxy)phenyl)-2-(pyrrolidin-1-yl)-5-(2,2,2-trifluoroethyl)oxazole-4-carboxamide]
1 to 10 µM | O=C(Nc1ccc(OC2CCOCC2)c(F)c1)c1nc(N2CCCC2)oc1CC(F)(F)F [Example 56, N-[3-fluoro-4-(oxan-4-yloxy)phenyl]-2-(pyrrolidin-1-yl)-5-(2,2,2-trifluoroethyl)oxazole-4-carboxamide]
1 to 10 µM | O=C(Nc1ccc(OC2CCCC2)c(F)c1)c1nc(N2CCC3(CC3)C2)oc1CC(F)(F)F [Example 57, N-(4-(cyclopentyloxy)-3-fluorophenyl)-2-(5-azaspiro[2.4]heptan-5-yl)-5-(2,2,2-trifluoroethyl)oxazole-4-carboxamide]
1 to 10 µM | O=C(Nc1ccc(OCCC(F)(F)F)c(F)c1)c1nc(N2CCCC2)oc1CC(F)(F)F [Example 58, N-(3-fluoro-4-(3,3,3-trifluoropropoxy)phenyl)-2-(pyrrolidin-1-yl)-5-(2,2,2-trifluoroethyl)oxazole-4-carboxamide]
1 to 10 µM | O=C(Nc1ccc(OC2CCCCC2)c(F)c1)c1nc(N2CCCC2)oc1CC(F)(F)F [Example 65, N-(4-(cyclohexyloxy)-3-fluorophenyl)-2-(pyrrolidin-1-yl)-5-(2,2,2-trifluoroethyl)oxazole-4-carboxamide]
1 to 10 µM | O=C(Nc1ccc(OC2CCCOC2)c(F)c1)c1nc(N2CCCC2)oc1CC(F)(F)F (stereo not drawn) [Example 66, N-[3-fluoro-4-(oxan-3-yloxy)phenyl]-2-(pyrrolidin-1-yl)-5-(2,2,2-trifluoroethyl)oxazole-4-carboxamide]
0.01 to 1 µM | CC1(C)CN(c2nc(C(=O)Nc3cc(F)c(OC4COCC4(F)F)c(F)c3)c(CC(F)(F)F)o2)C1 (stereo not drawn) [Example 70, N-{4-[(4,4-difluorotetrahydrofuran-3-yl)oxy]-3,5-difluorophenyl}-2-(3,3-dimethylazetidin-1-yl)-5-(2,2,2-trifluoroethyl)oxazole-4-carboxamide]
1 to 10 µM | CN(c1ccc(NC(=O)c2nc(N3CCCC3)oc2CC(F)(F)F)cc1F)C1CC2CC2C1 (stereo not drawn) [Example 80, N-(4-{bicyclo[3.1.0]hexan-3-yl(methyl)amino}-3-fluorophenyl)-2-(pyrrolidin-1-yl)-5-(2,2,2-trifluoroethyl)oxazole-4-carboxamide]
1 to 10 µM | O=C(Nc1ccc(OC2CCCC2(F)F)c(O)c1)c1nc(N2CCCC2)oc1CC(F)(F)F (stereo not drawn) [Example 86, N-{4-[(2,2-difluorocyclopentyl)oxy]-3-hydroxyphenyl}-2-(pyrrolidin-1-yl)-5-(2,2,2-trifluoroethyl)-1,3-oxazole-4-carboxamide]
10 to 100 µM | CCN(c1ccc(NC(=O)c2nc(N3CCCC3)oc2CC(F)(F)F)cc1F)C1CCCC1(F)F (stereo not drawn) [Example 87, N-(4-((2,2-difluorocyclopentyl)(ethyl)amino)-3-fluorophenyl)-2-(pyrrolidin-1-yl)-5-(2,2,2-trifluoroethyl)oxazole-4-carboxamide]
10 to 100 µM | NCC1CN(c2nc(C(=O)Nc3ccc(OC4CCCC4(F)F)c(F)c3)c(CC(F)(F)F)o2)C1 (stereo not drawn) [Example 88, 2-[3-(aminomethyl)azetidin-1-yl]-N-{4-[(2,2-difluorocyclopentyl)oxy]-3-fluorophenyl}-5-(2,2,2-trifluoroethyl)oxazole-4-carboxamide]
1 to 10 µM | Cc1oc(N2CC3(C2)CC(F)(F)C3)nc1C(=O)Nc1ccc(N2CCCCC2)c(F)c1 [Example 89, 2-(6,6-difluoro-2-azaspiro[3.3]heptan-2-yl)-N-(3-fluoro-4-(piperidin-1-yl)phenyl)-5-methyloxazole-4-carboxamide]
10 to 100 µM | Cc1oc(N2CCC3(CCC3)C2)nc1C(=O)Nc1ccc(N2CCCCC2)c(F)c1 [Example 92, N-(3-fluoro-4-(piperidin-1-yl)phenyl)-5-methyl-2-(6-azaspiro[3.4]octan-6-yl)oxazole-4-carboxamide]
10 to 100 µM | Cc1oc(N2CCN(C3CC3)CC2)nc1C(=O)Nc1ccc(N2CCCCC2)c(F)c1 [Example 94, 2-(4-cyclopropylpiperazin-1-yl)-N-(3-fluoro-4-(piperidin-1-yl)phenyl)-5-methyloxazole-4-carboxamide]
